The text below walks through data of patent publication US9023789B2, “Amylin analogs and pharmaceutical compositions thereof” (Novo Nordisk A/S, priority 2012, dated 2015).

Data set [1] can be described thus: ASSAY (III) ThT fibrillation assay for physical stability. The data set is classed as physicochemical. An outline of the steps:
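Physical stability scored by ThT fluorescence (444 nm excitation, 485 nm emission) tracked every 20 min during 37 °C incubation with 960 rpm shaking, ThT at 1 μM final. Values are replicate means with SD at chosen times; HPLC against pramlintide standard gives initial and post-assay soluble concentrations.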

In data set [2] the target is T1, rat amylin receptor (rat calcitonin receptor + rat RAMP 3) (Rattus norvegicus, UniProt P32214+Q9JJ73).
T1 construct: expressed in transfected cells; host or cells: BHK tk'ts 13 (transient, FuGENE 6), membranes
T1 sequence (P32214 25-479 isoform P32214-2 limits assumed): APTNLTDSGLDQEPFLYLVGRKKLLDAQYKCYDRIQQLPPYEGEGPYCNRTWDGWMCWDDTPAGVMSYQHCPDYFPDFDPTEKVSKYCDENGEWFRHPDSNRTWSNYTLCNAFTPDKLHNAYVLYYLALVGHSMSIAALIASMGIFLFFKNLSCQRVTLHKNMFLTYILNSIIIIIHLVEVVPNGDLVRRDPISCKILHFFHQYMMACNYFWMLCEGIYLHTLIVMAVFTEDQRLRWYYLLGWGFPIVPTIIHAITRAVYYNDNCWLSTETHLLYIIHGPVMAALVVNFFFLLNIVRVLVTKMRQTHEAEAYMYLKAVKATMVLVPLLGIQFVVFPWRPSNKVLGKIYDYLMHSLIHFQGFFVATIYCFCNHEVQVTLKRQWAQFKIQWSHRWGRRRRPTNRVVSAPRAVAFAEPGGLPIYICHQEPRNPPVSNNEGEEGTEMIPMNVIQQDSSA
T1 sequence (Q9JJ73 23-147 partner): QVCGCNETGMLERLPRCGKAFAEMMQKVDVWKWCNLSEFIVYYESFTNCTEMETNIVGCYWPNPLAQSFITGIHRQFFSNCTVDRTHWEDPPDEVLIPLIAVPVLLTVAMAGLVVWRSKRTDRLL
Description: ASSAY (VI) binding to the rat amylin receptor. Put shortly: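 The cell-membrane assay assessed binding at the rat amylin receptor. BHK tk′ts 13 cells were transfected transiently with rat calcitonin receptor, with FuGENE® 6 (Roche) as the transfection reagent, used per the manufacturer's recommendations. Approximately 48 hours after transfection the cells were harvested, and membranes were prepared for measuring binding.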

Another data set has as its target T2, rat calcitonin receptor (Rattus norvegicus, UniProt P32214).
T2 construct: expressed in transfected cells; host or cells: BHK tk'ts 13 (transient, FuGENE 6), membranes
T2 sequence (P32214 25-479 isoform P32214-2 limits assumed): T1 sequence (P32214 25-479 isoform P32214-2 limits assumed)
Put plainly: ASSAY (VIII) binding to the rat calcitonin receptor. The note with it: Table 7, read-out: rCTR bind IC50. Put shortly: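 Receptor source: membranes from transiently transfected BHK tk′ts 13 cells expressing rat calcitonin receptor, collected roughly 48 hours after transfection.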

[3] abbreviates: Table 7, binding to rat amylin receptor, read-out: rAmylin-R bind IC50.
The mark [4] stands for this setting: Table 7, rat binding selectivity, rCTR IC50 / rAmylin-R IC50.
Setting [5] is: Table 7a (preferred compounds), rat binding selectivity, rCTR IC50 / rAmylin-R IC50.
The mark [6] stands for this setting: ratio of rCTR bind IC50 to rAmylin-R bind IC50.

Where two headings read alike, the source gives them in different places. Numbered stars: 1 amine (or outer) side, 2 acyl side, 3 side chain; on linkers, the order of the positions; unused ones are H or OH. Bridge positions count the residues as written; N and C are the ends. Side chains are listed from the residue outwards. Peptide text beside a SMILES is read from it. * marks the point of attachment. C20 diacid = O=C(O)CCCCCCCCCCCCCCCCCCC(=O)*; γGlu = O=C(O)[C@H](CCC(=O)[*:2])N[*:1]; AEEA = NCCOCCOCC(=O)O

As a reminder, the IC50 is the point on the concentration scale where inhibition reaches its midpoint. `CC[C@H](C)[C@H](NC(=O)[C@H](C)NC(=O)CNC(=O)[C@H](Cc1ccccc1)NC(=O)[C@H](CC(N)=O)NC(=O)[C@@H]1CCCN1C(=O)[C@H](CO)NC(=O)[C@H](CO)NC(=O)[C@H](Cc1c[nH]cn1)NC(=O)[C@H](CCCNC(=N)N)NC(=O)[C@H](CC(C)C)NC(=O)[C@H](Cc1ccccc1)NC(=O)[C@H](Cc1c[nH]cn1)NC(=O)[C@H](C)NC(=O)[C@H](CC(C)C)NC(=O)[C@H](CCCNC(=N)N)NC(=O)[C@H](CCC(N)=O)NC(=O)[C@@H](NC(=O)[C@H](C)NC(=O)[C@@H]1CSSC[C@H](NC(=O)[C@@H](N)CCCCNC(=O)CC[C@H](NC(=O)CC[C@H](NC(=O)CCCCCCCCCCCCCCCCCCC(=O)O)C(=O)O)C(=O)O)C(=O)N[C@@H](CC(N)=O)C(=O)N[C@@H]([C@@H](C)O)C(=O)N[C@@H](C)C(=O)N[C@@H]([C@@H](C)O)C(=O)N1)[C@@H](C)O)C(=O)N1CCC[C@H]1C(=O)N[C@@H](CO)C(=O)N[C@@H](CO)C(=O)N[C@H](C(=O)N[C@@H](CC(N)=O)C(=O)N[C@H](C(=O)NCC(=O)N[C@@H](CO)C(=O)N[C@@H](CC(N)=O)C(=O)N[C@H](C(=O)N[C@@H](Cc1ccc(O)cc1)C(N)=O)[C@@H](C)O)C(C)C)[C@@H](C)O` [Example 92]: in data set [1], the “ThT pH 4.0 lag time (h)” value is listed as 8 h. Moreover, the IC50 turned out to be 0.668 nM in data set [2] (setting [3]) and 105 nM at rat calcitonin receptor. Also, the “Ratio rCT/rAmylin binding” value in data set [2] (setting [4]), in data set [2] (setting [5]) and in data set [2] (setting [6]) was 156.4 in each case.

On to `CC[C@H](C)[C@H](NC(=O)[C@H](C)NC(=O)CNC(=O)[C@H](Cc1ccccc1)NC(=O)[C@H](CC(N)=O)NC(=O)[C@@H]1CCCN1C(=O)[C@H](CO)NC(=O)[C@H](CO)NC(=O)[C@H](Cc1c[nH]cn1)NC(=O)[C@H](CCCNC(=N)N)NC(=O)[C@H](CC(C)C)NC(=O)[C@H](Cc1ccccc1)NC(=O)[C@H](CC(N)=O)NC(=O)[C@H](C)NC(=O)[C@H](CC(C)C)NC(=O)[C@H](CCCNC(=N)N)NC(=O)[C@H](CCC(N)=O)NC(=O)[C@@H](NC(=O)[C@H](C)NC(=O)[C@@H]1CSSC[C@H](NC(=O)[C@@H](N)CCCCNC(=O)COCCOCCNC(=O)COCCOCCNC(=O)CC[C@H](NC(=O)CCCCCCCCCCCCCCCCCCC(=O)O)C(=O)O)C(=O)N[C@@H](CC(N)=O)C(=O)N[C@@H]([C@@H](C)O)C(=O)N[C@@H](C)C(=O)N[C@@H]([C@@H](C)O)C(=O)N1)[C@@H](C)O)C(=O)N1CCC[C@H]1C(=O)N[C@@H](CO)C(=O)N[C@@H](CO)C(=O)N[C@H](C(=O)N[C@@H](CC(N)=O)C(=O)N[C@H](C(=O)NCC(=O)N1CCC[C@H]1C(=O)N[C@@H](CC(N)=O)C(=O)N[C@H](C(=O)N[C@@H](Cc1ccc(O)cc1)C(N)=O)[C@@H](C)O)C(C)C)[C@@H](C)O` [Example 98], for which the “ThT pH 4.0 lag time (h)” value in data set [1] was found to be 4 h. The IC50 in data set [2] (setting [3]) came out at 0.137 nM; at rat calcitonin receptor, 24.1 nM. The “Ratio rCT/rAmylin binding” value in data set [2] (setting [4]), in data set [2] (setting [5]) and in data set [2] (setting [6]) was 175.5 each time.

Regarding `CC[C@H](C)[C@H](NC(=O)[C@H](C)NC(=O)CNC(=O)[C@H](Cc1ccccc1)NC(=O)[C@H](CC(N)=O)NC(=O)[C@@H]1CCCN1C(=O)[C@H](CO)NC(=O)[C@H](CO)NC(=O)[C@H](Cc1c[nH]cn1)NC(=O)[C@H](CCCNC(=N)N)NC(=O)[C@H](CC(C)C)NC(=O)[C@H](Cc1ccccc1)NC(=O)[C@H](CO)NC(=O)[C@H](C)NC(=O)[C@H](CC(C)C)NC(=O)[C@H](CCCNC(=N)N)NC(=O)[C@H](CCC(N)=O)NC(=O)[C@@H](NC(=O)[C@H](C)NC(=O)[C@@H]1CSSC[C@H](NC(=O)[C@@H](N)CCCCNC(=O)COCCOCCNC(=O)CC[C@H](NC(=O)CCCCCCCCCCCCCCCCCCC(=O)O)C(=O)O)C(=O)N[C@@H](CC(N)=O)C(=O)N[C@@H]([C@@H](C)O)C(=O)N[C@@H](C)C(=O)N[C@@H]([C@@H](C)O)C(=O)N1)[C@@H](C)O)C(=O)N1CCC[C@H]1C(=O)N[C@@H](CO)C(=O)N[C@@H](CO)C(=O)N[C@H](C(=O)N1CCC[C@H]1C(=O)N[C@H](C(=O)NCC(=O)N[C@@H](CO)C(=O)N[C@@H](CC(N)=O)C(=O)N[C@H](C(=O)N[C@@H](Cc1ccc(O)cc1)C(N)=O)[C@@H](C)O)C(C)C)[C@@H](C)O` [Example 73] (H-K([AEEA-γGlu-C20 diacid])CNTATCATQRLASFLRHSSPNFGAIPSSTPVGSNTY-NH2; disulfide 2-7 (inferred)), the “ThT pH 4.0 lag time (h)” value in data set [1] came out at 12 h. The values for the IC50 (in data set [2]; at rat calcitonin receptor) were 0.283 nM and 50.3 nM, respectively. For the same molecule, the “Ratio rCT/rAmylin binding” value in data set [2] (setting [4]), in data set [2] (setting [5]) and in data set [2] (setting [6]) was 177.7 in each case.

In the case of `CC[C@H](C)[C@H](NC(=O)[C@H](C)NC(=O)CNC(=O)[C@H](Cc1ccccc1)NC(=O)[C@H](CC(N)=O)NC(=O)[C@@H]1CCCN1C(=O)[C@H](CO)NC(=O)[C@H](CO)NC(=O)[C@H](Cc1c[nH]cn1)NC(=O)[C@H](CCCNC(=N)N)NC(=O)[C@H](CC(C)C)NC(=O)[C@H](Cc1ccccc1)NC(=O)[C@H](CCCNC(=N)N)NC(=O)[C@H](C)NC(=O)[C@H](CC(C)C)NC(=O)[C@H](CCCNC(=N)N)NC(=O)[C@H](CCC(N)=O)NC(=O)[C@@H](NC(=O)[C@H](C)NC(=O)[C@@H]1CSSC[C@H](NC(=O)[C@@H](N)CCCCNC(=O)CC[C@H](NC(=O)CCCCCCCCCCCCCCCCCCC(=O)O)C(=O)O)C(=O)N[C@@H](CC(N)=O)C(=O)N[C@@H]([C@@H](C)O)C(=O)N[C@@H](C)C(=O)N[C@@H]([C@@H](C)O)C(=O)N1)[C@@H](C)O)C(=O)N1CCC[C@H]1C(=O)N[C@@H](CO)C(=O)N[C@@H](CO)C(=O)N[C@H](C(=O)N[C@@H](CC(N)=O)C(=O)N[C@H](C(=O)NCC(=O)N[C@@H](CO)C(=O)N[C@@H](CC(N)=O)C(=O)N[C@H](C(=O)N[C@@H](Cc1ccc(O)cc1)C(N)=O)[C@@H](C)O)C(C)C)[C@@H](C)O` [Example 83], in data set [1], the “ThT pH 4.0 lag time (h)” value was determined as 12 h. Also, the results for the half-maximal inhibitory concentration (IC50) (in data set [2] (setting [3]); on rat calcitonin receptor) were 2.83 nM and 140 nM, respectively. For the same molecule, the “Ratio rCT/rAmylin binding” value in data set [2] (setting [4]), in data set [2] (setting [5]) and in data set [2] (setting [6]) was 49.7 each time.

On to `CC[C@H](C)[C@H](NC(=O)[C@H](C)NC(=O)CNC(=O)[C@H](Cc1ccccc1)NC(=O)[C@H](CC(N)=O)NC(=O)[C@@H]1CCCN1C(=O)[C@H](CO)NC(=O)[C@H](CO)NC(=O)[C@H](Cc1c[nH]cn1)NC(=O)[C@H](CCCNC(=N)N)NC(=O)[C@H](CC(C)C)NC(=O)[C@H](Cc1ccccc1)NC(=O)[C@H](CC(N)=O)NC(=O)[C@H](C)NC(=O)[C@H](CC(C)C)NC(=O)[C@H](CCCNC(=N)N)NC(=O)[C@H](CCC(N)=O)NC(=O)[C@@H](NC(=O)[C@H](C)NC(=O)[C@@H]1CSSC[C@H](NC(=O)[C@@H](N)CCCCNC(=O)COCCOCCNC(=O)COCCOCCNC(=O)CC[C@H](NC(=O)CCCCCCCCCCCCCCCCCCC(=O)O)C(=O)O)C(=O)N[C@@H](CC(N)=O)C(=O)N[C@@H]([C@@H](C)O)C(=O)N[C@@H](C)C(=O)N[C@@H]([C@@H](C)O)C(=O)N1)[C@@H](C)O)C(=O)N1CCC[C@H]1C(=O)N[C@@H](CO)C(=O)N[C@@H](CO)C(=O)N[C@H](C(=O)N1CCC[C@H]1C(=O)N[C@H](C(=O)NCC(=O)N[C@@H](CO)C(=O)N[C@@H](CC(N)=O)C(=O)N[C@H](C(=O)N[C@@H](Cc1ccc(O)cc1)C(N)=O)[C@@H](C)O)C(C)C)[C@@H](C)O` [Example 96], for which, in data set [1], the “ThT pH 4.0 lag time (h)” value was 12 h. For the same molecule, the concentration for half-maximal inhibition (IC50) is 0.529 nM in data set [2] (setting [3]) and 62.2 nM at rat calcitonin receptor. Besides, the “Ratio rCT/rAmylin binding” value in data set [2] (setting [4]), in data set [2] (setting [5]) and in data set [2] (setting [6]) was 117.5 throughout.
